Results published in patent US10144715B2, “Piperazine derivatives as liver X receptor modulators” (priority 2014, dated 2018).
Read-outs that look alike come from different tables or passages of the source.

Key:
[1] = target: Gal4 DNA binding domain fused to the LBD of LXRα in HEK293 cells (Homo sapiens (Human), UniProt Q13133); assay: LXR luciferase transcriptional reporter gene assay, agonist mode, LXRα; type: cell-based; details: for EC50: read-out: Cell LXRα EC50
[2] = target: Gal4 DNA binding domain fused to the LBD of LXRβ in HEK293 cells (Homo sapiens (Human), UniProt P55055); assay: cell-based
LXR α LBD protein [3] = target: T1, LXR α LBD protein (Homo sapiens (Human), UniProt Q13133); assay: Human LXRα coactivator recruitment FRET assay, agonist mode; type: biochemical
Method in brief: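 Time-resolved FRET (delay 100 µs, window 200 µs) after 2 h rt incubation of compound with 10 nM (2×) GST-tagged LXRα or LXRβ LBD plus 200 nM fluorescein-SRC2-3 and 20 nM Tb-anti-GST (4×). Percent control vs concentration fit to four-parameter model; EC50 at inflection.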

LXR β LBD protein [4] = target: T2, LXR β LBD protein (Homo sapiens (Human), UniProt P55055); assay: biochemical; type: biochemical
Experimental: Two μL of the DMSO solutions were transferred to the plate and 38 μL of 10 nM LXRα-LBD or LXRβ-LBD (2×) were added immediately to the wells. The plate was shaken for 5 min at rt on an orbital micro shaker (DPC MicroMix® 5), after which 40 μL of 200 nM fluorescein-SRC2-3 peptide and 20 nM Terbium-anti-GST-antibody (Cat# PV3550, Life Technologies, Grand Island, N.Y.) solution (4×) were added to all. The plate was sealed and shaken for 2 min at rt, and incubated at rt for 2 h without agitation. […] The delay and window times were set at 100 and 200 microseconds, respectively. […] The percent control vs. compound concentration data were fit into a four-parameter model, and EC50 values were calculated from the fit as the concentrations corresponding to the inflection points on the concentration-response curves.
Target sequence in this assay (P55055 222-460): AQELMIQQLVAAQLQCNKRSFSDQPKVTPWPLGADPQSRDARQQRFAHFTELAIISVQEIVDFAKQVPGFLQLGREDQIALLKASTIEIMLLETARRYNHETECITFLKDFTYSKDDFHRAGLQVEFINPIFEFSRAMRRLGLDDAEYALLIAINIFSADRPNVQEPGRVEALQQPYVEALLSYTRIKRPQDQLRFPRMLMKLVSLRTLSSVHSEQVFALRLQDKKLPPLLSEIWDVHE

LXR β LBD protein [5] = target: T2, LXR β LBD protein; assay: biochemical; type: binding; details: read-out: LXRβ Binding Ki
Target sequence in this assay (P55055 222-460 limits assumed): as the sequence (P55055 222-460) above

LXR α LBD protein [6] = target: T1, LXR α LBD protein; assay: LXR α radioligand binding assay (SPA, competition with [3H]TO901317); details: read-out: LXRα Binding Ki
[7] = agonist mode, read-out: Cell LXRβ EC50
[8] = agonist mode, read-out: FRET LXRβ EC50
[9] = Biological Test Example 3, agonist mode
[10] = Biological Test Example 2, agonist mode

Sequence of Gal4 DNA binding domain fused to the LBD of LXRβ in HEK293 cells (P55055 222-460 limits assumed): as the sequence (P55055 222-460) above
T1 sequence (Q13133 209-447): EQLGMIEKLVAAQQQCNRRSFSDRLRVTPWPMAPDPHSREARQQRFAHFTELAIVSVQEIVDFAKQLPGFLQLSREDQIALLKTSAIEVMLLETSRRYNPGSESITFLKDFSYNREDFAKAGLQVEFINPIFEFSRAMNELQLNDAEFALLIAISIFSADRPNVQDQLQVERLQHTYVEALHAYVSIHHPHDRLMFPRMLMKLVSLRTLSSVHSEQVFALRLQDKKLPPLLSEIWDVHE
Sequence of Gal4 DNA binding domain fused to the LBD of LXRα in HEK293 cells (Q13133 209-447): as above

Molecule	EC50 [2] [µM]	EC50 (LXR α LBD protein [3]; agonist mode) [µM]	FRET LXRα efficacy (LXR α LBD protein [3]; agonist mode) [%]	FRET LXRβ efficacy (LXR β LBD protein [4]; agonist mode)	EC50 (LXR β LBD protein [4]; read-out: FRET LXRβ EC50) [nM]	EC50 [1] [µM]	EC50 [2, 7] [µM]	EC50 (LXR β LBD protein [4]; [8]) [nM]	also measured
Cc1ccccc1[C@@H]1CN(c2cccc(S(C)(=O)=O)c2)CCN1Cc1ccc(C(F)(F)F)nc1 (single isomer, unassigned) [46-45]	7.52	6.57	43	1524 (74) %	1520	–	–	–	EC50 ([1]; agonist mode): > 20 µM; Cell LXRβ efficacy ([2]; agonist mode): 7516 (44) %
NS(=O)(=O)c1cccc(N2CCN(C[C@H]3CC[C@H](C(F)(F)F)CC3)[C@H](c3ccccc3)C2)c1 (single isomer, unassigned) [48-36]	–	> 50	–	25%	–	> 20	> 20	16400	–
CS(=O)(=O)c1cc(N2CCN(C[C@H]3CC[C@H](C(F)(F)F)CC3)[C@H](c3ccccc3)C2)ccc1C(N)=O (single isomer, unassigned) [17-36]	–	0.808	46	79%	–	> 20	> 20	1180	–
CS(=O)(=O)c1cccc(N2CCN(Cc3ccc(C(F)(F)F)nc3)[C@H](c3ccccc3Cl)C2)c1 (single isomer, unassigned) [46-56]	> 20	27	47	–	2250	> 20	–	–	FRET LXRβ efficacy (LXR β LBD protein [4]): 2252 (40) %
C[C@@]1(c2ccccc2)CN(c2cccc(S(C)(=O)=O)c2)CCN1Cc1ccc(C(F)(F)F)c(Cl)c1 (single isomer, unassigned) [46-35]	> 20	> 50	–	–	> 50000	–	–	–	EC50 ([1]; agonist mode): > 20 µM
CS(=O)(=O)c1cccc(N2CCN(C[C@H]3CC[C@H](C(F)(F)F)CC3)[C@H](c3ccccc3)C2)c1 (single isomer, unassigned) [48-32]	–	15.3	59	97%	–	19	3.34	3800	Cell LXRα efficacy [1]: 19000 (4) %; Cell LXRβ efficacy ([2]; agonist mode): 15%
C[C@@]1(c2ccccc2)CN(c2cccc(S(C)(=O)=O)c2)CCN1Cc1ccc(C(F)(F)F)cc1 [46-20, (R)-2-methyl-4-(3-(methylsulfonyl)phenyl)-2-phenyl-1-(4-(trifluoromethyl)benzyl)piperazine]	> 20	> 50	–	–	> 50000	–	–	–	EC50 ([1]; agonist mode): > 20 µM
CS(=O)(=O)c1cc(N2CCN(C[C@H]3CC[C@H](C(F)(F)F)CC3)[C@H](c3ccccc3)C2)ccc1C#N (single isomer, unassigned) [50-3]	–	–	–	–	–	> 20	–	–	EC50 ([2]; Biological Test Example 2, agonist mode, read-out: Cell LXRβ EC50): > 20 µM; EC50 (LXR α LBD protein [3]; [9]): 12.9 µM; FRET LXRα efficacy (LXR α LBD protein [3]; [9]): 71%; FRET LXRβ efficacy (LXR β LBD protein [4]; [9]): 52%; EC50 (LXR β LBD protein [4]; Biological Test Example 3, agonist mode, read-out: FRET LXRβ EC50): 1660 nM
CS(=O)(=O)c1cccc(N2CCN(Cc3ccc(OC(F)(F)F)cc3)[C@H](c3ccccc3)C2)c1 (single isomer, unassigned) [46-22]	2.1	4.62	42	–	1270	> 20	–	–	Cell LXRβ efficacy [2]: 2095 (9) %; FRET LXRβ efficacy (LXR β LBD protein [4]): 1273 (73) %
NS(=O)(=O)c1cccc(N2CCN(C[C@H]3CC[C@@H](C(F)(F)F)CC3)[C@H](c3ccccc3)C2)c1 (single isomer, unassigned) [48-34]	–	2.31	25	39%	–	9.86	3.82	704	Cell LXRα efficacy [1]: 9858 (48) %; Cell LXRβ efficacy ([2]; agonist mode): 32%
CS(=O)(=O)c1cccc(N2CCN(C[C@@H]3CCN(CC(F)(F)F)C3)[C@H](c3ccccc3)C2)c1 (single isomer, unassigned) [48-62]	4.68	–	–	–	–	–	–	–	EC50 [1, 10]: > 20 µM; Cell LXRβ efficacy [2, 10]: 4682 (8) %; EC50 (LXR α LBD protein [3]; [9]): 9.98 µM; FRET LXRα efficacy (LXR α LBD protein [3]; [9]): 39%; EC50 (LXR β LBD protein [4]): 2100 nM
tert-butyl 2-(2-bromophenyl)-4-(3-(methylsulfonyl)phenyl)piperazine-1-carboxylate [1-9]	–	> 50	–	32%	–	> 20	> 20	564	–
CS(=O)(=O)c1cccc(N2CCN(Cc3ccc(C(F)(F)F)o3)[C@@H](c3ccccc3)C2)c1 [46-66, (S)-4-(3-(methylsulfonyl)phenyl)-2-phenyl-1-((5-(trifluoromethyl)furan-2-yl)methyl)piperazine]	> 20	–	–	–	–	–	–	> 50000	Ki (LXR β LBD protein [5]): 207 nM
COC(=O)c1cnc(N2CCN(c3ccc(F)c(S(C)(=O)=O)c3)C[C@H]2C(C)C)nc1C(F)(F)F [9-2, methyl (R)-2-(4-(4-fluoro-3-(methylsulfonyl)phenyl)-2-isopropylpiperazin-1-yl)-4-(trifluoromethyl)pyrimidine-5-carboxylate]	0.086	–	–	–	9	–	–	–	Ki (LXR α LBD protein [6]): 95 nM; Ki (LXR β LBD protein [5]): 10 nM; Cell LXRα efficacy [1]: 543 (54) %; EC50 ([1]; agonist mode): 0.543 µM; Cell LXRβ efficacy [2]: 86 (34) %; FRET LXRβ efficacy (LXR β LBD protein [4]): 9 (91) %
CC(C)[C@H]1CC[C@H](CN2CCN(c3cccc(S(C)(=O)=O)c3)C[C@H]2c2ccccc2)CC1 (single isomer, unassigned) [48-14]	–	> 50	–	67%	–	> 20	> 20	12300	–
CC(C)(O)c1ccc(CN2CCN(c3cccc(S(C)(=O)=O)c3)C[C@H]2c2ccccc2)cc1 [10-11, (R)-2-(4-((4-(3-(methylsulfonyl)phenyl)-2-phenylpiperazin-1-yl)methyl)phenyl)propan-2-ol]	> 20	> 50	–	–	> 50000	> 20	–	–	–
benzyl 4-(3-(methylsulfonyl)phenyl)-2-phenylpiperazine-1-carboxylate [1-14]	–	1.54	27	25%	–	> 20	> 20	–	–
CS(=O)(=O)c1cccc(N2CCN(Cc3ccc(C(F)(F)F)cn3)[C@@H](c3ccccc3)C2)c1 [46-64, (S)-4-(3-(methylsulfonyl)phenyl)-2-phenyl-1-((5-(trifluoromethyl)pyridin-2-yl)methyl)piperazine]	5.8	–	–	34%	–	–	–	1860	Ki (LXR β LBD protein [5]): > 2500 nM; Cell LXRβ efficacy ([2]; agonist mode): 5804 (13) %
NS(=O)(=O)c1cccc(N2CCN(C[C@H]3CC[C@H](C(F)(F)F)CC3)[C@@H](c3ccccc3)C2)c1 (single isomer, unassigned) [48-37]	–	2.35	33	30%	–	2.83	1.18	1290	Cell LXRα efficacy [1]: 2829 (39) %; Cell LXRβ efficacy ([2]; agonist mode): 19%
CS(=O)(=O)c1cccc(N2CCN(C[C@H]3CCN(CC(F)(F)F)C3)[C@H](c3ccccc3)C2)c1 (single isomer, unassigned) [48-60]	6.83	–	–	–	–	–	–	–	Cell LXRα efficacy [1]: 18622 (13) %; EC50 [1, 10]: 18.6 µM; Cell LXRβ efficacy [2, 10]: 6832 (7) %; EC50 (LXR α LBD protein [3]; [9]): 16.1 µM; FRET LXRα efficacy (LXR α LBD protein [3]; [9]): 27%; EC50 (LXR β LBD protein [4]): 1030 nM; FRET LXRβ efficacy (LXR β LBD protein [4]; [9]): 1032 (33) %
